Data as given in US20250230155A1 (Vanderbilt University, priority 2021, published 2025).

Target: T1, human mAChR M4 (Homo sapiens, UniProt P08173)
T1 construct: expressed in transfected cells
T1 sequence (P08173 1-479): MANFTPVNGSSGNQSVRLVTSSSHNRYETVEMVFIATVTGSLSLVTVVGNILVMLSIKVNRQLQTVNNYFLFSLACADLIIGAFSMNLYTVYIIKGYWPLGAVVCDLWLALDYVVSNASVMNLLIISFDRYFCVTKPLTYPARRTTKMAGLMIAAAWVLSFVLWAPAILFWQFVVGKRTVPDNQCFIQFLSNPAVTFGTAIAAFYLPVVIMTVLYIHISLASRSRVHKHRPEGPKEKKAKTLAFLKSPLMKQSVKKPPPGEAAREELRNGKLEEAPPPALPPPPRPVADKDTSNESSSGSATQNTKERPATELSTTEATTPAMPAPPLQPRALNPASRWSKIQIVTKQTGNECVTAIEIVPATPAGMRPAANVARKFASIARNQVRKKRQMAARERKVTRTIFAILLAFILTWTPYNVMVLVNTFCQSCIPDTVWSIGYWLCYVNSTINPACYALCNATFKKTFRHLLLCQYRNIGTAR
Test: mAChR M4 cell-based functional assay (calcium mobilization, CHO-K1 hM4-Gqi5 cells)
Conditions: for Emax at 30 µM: CHO-K1, % ACh maximum at 30 μM, human M4; for EC50: positive allosteric modulator activity, increase in the EC20 acetylcholine response, CHO-K1 hM4-Gqi5 cells, read-out: Human M4 EC50
How it was run: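 Fluorescent calcium read-out (Fluo-4 AM, FDSS, 1 Hz) in hM4-Gqi5 CHO-K1 cells, 11-point 1:3 compound series. Agonism scored on compound addition, PAM activity as increase of the 144 s EC20 acetylcholine response, antagonism as decrease of the 230 s EC80 response; four-parameter logistic fits give EC50 and Emax.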

Row | Emax at 30 µM | EC50 | SMILES
1 | 98% | 69 nM | Cc1cc(F)ncc1-c1cnc2c(c1)CN(c1ncc(C#N)cc1C)CC2 [Example 436, 6-(3-(6-fluoro-4-methylpyridin-3-yl)-7,8-dihydro-1,6-naphthyridin-6(5H)-yl)-5-methylnicotinonitrile]
2 | 90% | 389 nM | Cc1cc(C#N)cnc1N1CCc2ncc(C3CCOC3)cc2C1 (centres unmarked) [Example 395, 5-methyl-6-(3-(tetrahydrofuran-3-yl)-7,8-dihydro-1,6-naphthyridin-6(5H)-yl)nicotinonitrile]
3 | 73% | 356 nM | Cc1cc(C#N)nnc1N1CCc2ncc(-c3ccc(C4CC4)nc3)cc2C1 [Example 321, 6-(3-(6-cyclopropylpyridin-3-yl)-7,8-dihydro-1,6-naphthyridin-6(5H)-yl)-5-methylpyridazine-3-carbonitrile]
4 | 83% | 241 nM | Cc1cc(C(=O)N2CCC2)nnc1N1CCc2ncc(-n3cccn3)cc2C1 [Example 531, (6-(3-(1H-pyrazol-1-yl)-7,8-dihydro-1,6-naphthyridin-6(5H)-yl)-5-methylpyridazin-3-yl)(azetidin-1-yl)methanone]
5 | 82% | 232 nM | Cc1ccc(Nc2cnc3c(c2)CN(c2nnc(C#N)c(C)c2C)CC3)c(F)n1 [compound 79, 6-[3-[(2-fluoro-6-methyl-3-pyridyl)amino]-7,8-dihydro-5H-1,6-naphthyridin-6-yl]-4,5-dimethyl-pyridazine-3-carbonitrile]
6 | 99% | 98 nM | Cc1cc(C(=O)N2CCC(c3ccncc3)C2)nnc1N1CCc2ncc(N3CCCn4nccc43)cc2C1 (centres unmarked) [Example 521, (6-(3-(6,7-dihydropyrazolo[1,5-a]pyrimidin-4(5H)-yl)-7,8-dihydro-1,6-naphthyridin-6(5H)-yl)-5-methylpyridazin-3-yl)(3-(pyridin-4-yl)pyrrolidin-1-yl)methanone]
7 | 106% | 244 nM | COc1ccc(-c2cnc3c(c2)CN(c2ncc(C#N)cc2C)CC3)cn1 [compound 188, 6-[3-(6-methoxy-3-pyridyl)-7,8-dihydro-5H-1,6-naphthyridin-6-yl]-5-methyl-pyridine-3-carbonitrile]
8 | 95% | 577 nM | Cc1cc(C#N)cnc1N1CCc2ncc(C(C)(O)C(F)(F)F)cc2C1 (centres unmarked) [Example 426, 5-methyl-6-(3-(1,1,1-trifluoro-2-hydroxypropan-2-yl)-7,8-dihydro-1,6-naphthyridin-6(5H)-yl)nicotinonitrile]
9 | 41% | 386 nM | Cc1c(C#N)nnc(N2CCc3ncc(-c4ccc(N5CCN(C6CC6)CC5)nc4)cc3C2)c1C [Example 335, 6-(3-(6-(4-cyclopropylpiperazin-1-yl)pyridin-3-yl)-7,8-dihydro-1,6-naphthyridin-6(5H)-yl)-4,5-dimethylpyridazine-3-carbonitrile]
10 | 87% | 324 nM | Cc1cc(C(=O)NCc2ccncc2)cnc1N1CCc2ncc(Nc3ccnn3C)cc2C1 [Example 473, 5-methyl-6-(3-((1-methyl-1H-pyrazol-5-yl)amino)-7,8-dihydro-1,6-naphthyridin-6(5H)-yl)-N-(pyridin-4-ylmethyl)nicotinamide]
11 | 98% | 321 nM | Cc1c(C#N)nnc(N2CCc3ncc(N4CCC(C)n5nccc54)cc3C2)c1C (centres unmarked) [Example 364, 4,5-dimethyl-6-(3-(7-methyl-6,7-dihydropyrazolo[1,5-a]pyrimidin-4(5H)-yl)-7,8-dihydro-1,6-naphthyridin-6(5H)-yl)pyridazine-3-carbonitrile]
12 | 81% | 855 nM | O=C(NCc1cncs1)c1ccc(N2CCc3ncc(C(F)(F)F)cc3C2)nn1 [Example 510, N-(thiazol-5-ylmethyl)-6-(3-(trifluoromethyl)-7,8-dihydro-1,6-naphthyridin-6(5H)-yl)pyridazine-3-carboxamide]
13 | 86% | 731 nM | Cc1nc(Cl)c(C)c(N2CCc3ncc(Nc4cc(F)ccc4F)cc3C2)n1 [compound 88, 6-(6-chloro-2,5-dimethyl-pyrimidin-4-yl)-N-(2,5-difluorophenyl)-7,8-dihydro-5H-1,6-naphthyridin-3-amine]
14 | 82% | 1810 nM | Cc1c(C#N)nnc(N2CCc3ncc(-c4ccnnc4)cc3C2)c1C [compound 48, 4,5-dimethyl-6-(3-pyridazin-4-yl-7,8-dihydro-5H-1,6-naphthyridin-6-yl)pyridazine-3-carbonitrile]
15 | 96% | 539 nM | COCc1nc(Cl)c(C)c(N2CCc3ncc(-c4cncs4)cc3C2)n1 [compound 217, 5-(6-(6-chloro-2-(methoxymethyl)-5-methylpyrimidin-4-yl)-5,6,7,8-tetrahydro-1,6-naphthyridin-3-yl)thiazole]
16 | 61% | 6090 nM | Cc1cc(C(=O)NCc2ccc(C(F)(F)F)cn2)cnc1N1CCc2ncccc2C1 [compound 144, 6-(7,8-dihydro-5H-1,6-naphthyridin-6-yl)-5-methyl-N-[[5-(trifluoromethyl)-2-pyridyl]methyl]pyridine-3-carboxamide]
17 | 47% | 3600 nM | Cc1c(C#N)nnc(N2CCc3ncc(N4CCO[C@@H](c5ccccc5)C4)cc3C2)c1C [Example 379, (S)-4,5-dimethyl-6-(3-(2-phenylmorpholino)-7,8-dihydro-1,6-naphthyridin-6(5H)-yl)pyridazine-3-carbonitrile]
18 | 88% | 143 nM | Cc1cnc2c(c1)CN(c1ncc(C(=O)NCc3ccncc3C)cc1C)CC2 [Example 441, 5-methyl-6-(3-methyl-7,8-dihydro-1,6-naphthyridin-6(5H)-yl)-N-((3-methylpyridin-4-yl)methyl)nicotinamide]
19 | 97% | 3 nM | Cc1c(C#N)nnc(N2CCc3ncc(Nc4ccncc4F)cc3C2)c1C [Example 613, 6-(3-((3-fluoropyridin-4-yl)amino)-7,8-dihydro-1,6-naphthyridin-6(5H)-yl)-4,5-dimethylpyridazine-3-carbonitrile]
20 | 96% | 60 nM | Cc1cc(C(=O)NCc2ccncc2)nnc1N1CCc2ncc(CC(F)(F)F)cc2C1 [Example 581, 5-methyl-N-(pyridin-4-ylmethyl)-6-(3-(2,2,2-trifluoroethyl)-7,8-dihydro-1,6-naphthyridin-6(5H)-yl)pyridazine-3-carboxamide]
21 | 84% | 654 nM | Cc1nc(Cl)c(C)c(N2CCc3ncc(Nc4cccc(F)c4F)cc3C2)n1 [compound 86, 6-(6-chloro-2,5-dimethyl-pyrimidin-4-yl)-N-(2,3-difluorophenyl)-7,8-dihydro-5H-1,6-naphthyridin-3-amine]
22 | 92% | 12 nM | Cc1cc(Nc2cnc3c(c2)CN(c2nnc(C#N)c(C)c2C)CC3)c(F)cn1 [Example 614, 6-(3-((5-fluoro-2-methylpyridin-4-yl)amino)-7,8-dihydro-1,6-naphthyridin-6(5H)-yl)-4,5-dimethylpyridazine-3-carbonitrile]
23 | 98% | 111 nM | Cc1c(C(=O)Nc2ccncc2)nnc(N2CCc3ncc(C(F)(F)F)cc3C2)c1C [Example 466, 4,5-dimethyl-N-(pyridin-4-yl)-6-(3-(trifluoromethyl)-7,8-dihydro-1,6-naphthyridin-6(5H)-yl)pyridazine-3-carboxamide]
24 | 87% | 51 nM | Cc1cc(C(=O)N2CC(F)C2)nnc1N1CCc2ncc(N3CCO[C@H](C)C3)cc2C1 [Example 572, (R)-(3-fluoroazetidin-1-yl)(5-methyl-6-(3-(2-methylmorpholino)-7,8-dihydro-1,6-naphthyridin-6(5H)-yl)pyridazin-3-yl)methanone]
25 | 54% | ≥ 10000 nM | Cc1cc(C(=O)NCc2ccc3c(c2)CCS3(=O)=O)cnc1N1CCc2ncccc2C1 [compound 164, 6-(7,8-dihydro-5H-1,6-naphthyridin-6-yl)-N-[(1,1-dioxo-2,3-dihydrobenzothiophen-5-yl)methyl]-5-methyl-pyridine-3-carboxamide]
26 | 102% | 37 nM | Cc1cc(C(=O)NCc2ccncc2F)nnc1N1CCc2ncc(C(F)(F)F)cc2C1 [Example 496, N-((3-fluoropyridin-4-yl)methyl)-5-methyl-6-(3-(trifluoromethyl)-7,8-dihydro-1,6-naphthyridin-6(5H)-yl)pyridazine-3-carboxamide]
27 | 93% | 78.5 nM | Cc1cc(C(=O)NCc2nccs2)cnc1N1CCc2ncc(-c3c(C)noc3C)cc2C1 [compound 172, 6-[3-(3,5-dimethylisoxazol-4-yl)-7,8-dihydro-5H-1,6-naphthyridin-6-yl]-5-methyl-N-(thiazol-2-ylmethyl)pyridine-3-carboxamide]
28 | 97% | 286 nM | Cc1cnc2c(c1)CN(c1nnc(C(=O)NCc3ccncc3)c(C)c1C)CC2 [Example 486, 4,5-dimethyl-6-(3-methyl-7,8-dihydro-1,6-naphthyridin-6(5H)-yl)-N-(pyridin-4-ylmethyl)pyridazine-3-carboxamide]
